Measurements reported in patent US12324802B2, “Modulators of cystic fibrosis transmembrane conductance regulator” (Vertex Pharmaceuticals Incorporated, priority 2020, dated 2025).
Like-named read-outs stand apart in the source and are kept apart here.

What was measured:
[1] = from CC(C)(C)OC(=O)NCC(C)(C)OCCC[C@@](OCc1ccccc1)(c1nnc(-c2nc(Cl)c(C(F)(F)F)cc2[N+](=O)[O-])o1)C(F)(F)F; snar bond; 14-membered ring; TFA; then DIEA; DCM; 0.96 mM; 25.0 °C; 2 steps
[2] = not given; remark: listed apart in the source

Compound: CC1(C)CNc2nc(c([N+](=O)[O-])cc2C(F)(F)F)C2=NN=C(O2)[C@@](OCc2ccccc2)(C(F)(F)F)CCCO1
- ring closure, crude yield [1]: 99%

Compound: CN1CCN(C)c2nc(c(NC(=O)OC(C)(C)C)cc2C(F)(F)F)C2=NN=C(O2)C(OCc2ccccc2)(C(F)(F)F)CCC1=O (stereo not drawn)
- ring closure, yield after HPLC (from CNCCN(C)c1nc(-c2nnc(C(CCC(=O)O)(OCc3ccccc3)C(F)(F)F)o2)c(NC(=O)OC(C)(C)C)cc1C(F)(F)F, amide bond, 14-membered ring, HATU/DIEA, DMF, 9.16 mM, 25.0 °C, 3.0 h): 70%

Compound: 6-benzyloxy-12,12-dimethyl-17-nitro-6,15-bis(trifluoromethyl)-19-oxa-3,4,13,18-tetrazatricyclo[12.3.1.12,5]nonadeca-1(18),2,4,8,14,16-hexaen-7-ol (E/Z olefin mixture, cis diol)
- ring closure, yield after HPLC (rcm bond, 14-membered ring, Zhan catalyst-1B, 70.0 °C): 49%

Compound: CC(=O)OC1C=CC[C@](OCc2ccccc2)(C(F)(F)F)C2=NN=C(O2)c2nc(c(C(F)(F)F)cc2[N+](=O)[O-])NC(C)(C)C1 (mixture of isomers)
- ring closure, isolated yield ([2]; from C=CC[C@@](OCc1ccccc1)(c1nnc(-c2nc(NC(C)(C)CC(C=C)OC(C)=O)c(C(F)(F)F)cc2[N+](=O)[O-])o1)C(F)(F)F, rcm bond, 14-membered ring, Zhan catalyst-1B, toluene, 10.6 mM, 110.0 °C, 19.0 h): 20%

Compound: CC(C)(C)OC(=O)Nc1cc(C(F)(F)F)c2nc1-c1nnc(o1)C(OCc1ccccc1)(C(F)(F)F)CC=CC[C@@H]1CCCN21 (mixture of isomers)
- ring closure, isolated yield ([2]; from C=CC[C@@H]1CCCN1c1nc(-c2nnc(C(CC=C)(OCc3ccccc3)C(F)(F)F)o2)c(NC(=O)OC(C)(C)C)cc1C(F)(F)F, rcm bond, 13-membered ring, Zhan-1B (two charges), DCE, 6.47 mM, 80.0 °C, 36.0 h): 6.5%

Compound: CC(C)(C)OC(=O)Nc1cc(C(F)(F)F)c2nc1-c1nnc(o1)C(OCc1ccccc1)(C(F)(F)F)CCC=CC1CCCN21 (mixture of isomers)
- ring closure, yield after HPLC (from C=CCCC(OCc1ccccc1)(c1nnc(-c2nc(N3CCCC3C=C)c(C(F)(F)F)cc2NC(=O)OC(C)(C)C)o1)C(F)(F)F, rcm bond, 13-membered ring, Zhan-1B (two charges), DCE, 6.25 mM, 85.0 °C, 23.0 h): 3%

Compound: CC(C)(C)OC(=O)Nc1cc(C(F)(F)F)c2nc1-c1nnc(o1)[C@@](O)(C(F)(F)F)c1cc(ccc1F)C=CC[C@@H]1CCCN21 (mixture of isomers)
- ring closure, isolated yield ([2]; from C=CC[C@@H]1CCCN1c1nc(-c2nnc([C@](O)(c3cc(I)ccc3F)C(F)(F)F)o2)c(NC(=O)OC(C)(C)C)cc1C(F)(F)F, cc_pd bond, 15-membered ring, Pd(OAc)2/P(o-tol)3/Et3N, MeCN, 9.5 mM, 80.0 °C, 22.0 h): 58%

Compound: CC(C)(C)OC(=O)Nc1cc(C(F)(F)F)c2nc1-c1nnc(o1)[C@](O)(C(F)(F)F)c1cc(ccc1F)C=CC[C@@H]1CCCN21 (mixture of isomers)
- ring closure, isolated yield ([2]; from C=CC[C@@H]1CCCN1c1nc(-c2nnc([C@@](O)(c3cc(I)ccc3F)C(F)(F)F)o2)c(NC(=O)OC(C)(C)C)cc1C(F)(F)F, cc_pd bond, 15-membered ring, Pd(OAc)2/P(o-tol)3/Et3N, MeCN, 9.5 mM, 80.0 °C, 22.0 h): 56%

Compound: CC1(C)CC=CCC[C@](OCc2ccccc2)(C(F)(F)F)C2=NN=C(O2)c2nc(c(C(F)(F)F)cc2[N+](=O)[O-])N1 (mixture of isomers)
- ring closure, isolated yield ([2]; from [2H]C([2H])([2H])C(CC=C)(Nc1nc(-c2nnc([C@@](CCC=C)(OCc3ccccc3)C(F)(F)F)o2)c([N+](=O)[O-])cc1C(F)(F)F)C([2H])([2H])[2H], rcm bond, 14-membered ring, Zhan catalyst-1B, DCE, 11.0 mM, 75.0 °C, 3.0 h): 37.8%

Compound: CC1(C)CCC=CC[C@](OCc2ccccc2)(C(F)(F)F)C2=NN=C(O2)c2nc(c(C(F)F)cc2[N+](=O)[O-])N1 (mixture of isomers)
- ring closure, yield after HPLC (from C=CCCC(C)(C)Nc1nc(-c2nnc([C@@](CC=C)(OCc3ccccc3)C(F)(F)F)o2)c([N+](=O)[O-])cc1C(F)F, rcm bond, 14-membered ring, Zhan catalyst-1B, DCE, 5.67 mM, 65.0 °C, 4.5 h): 20%

Compound: O=[N+]([O-])c1cc(C(F)(F)F)c2nc1-c1nnc(o1)-c1c(cccc1OCc1ccccc1)CC=CC[C@@H]1CCCN21 (mixture of isomers)
- ring closure, isolated yield ([2]; from C=CCc1cccc(OCc2ccccc2)c1-c1nnc(-c2nc(N3CCC[C@H]3CC=C)c(C(F)(F)F)cc2[N+](=O)[O-])o1, rcm bond, 14-membered ring, Zhan-1B, DCE, 7.24 mM, 70.0 °C, 5.0 h): 26%

Compound: (6R)-6-benzyloxy-17-(tert-butoxycarbonylamino)-6,15-bis(trifluoromethyl)-19-oxa-3,4,13,18-tetrazatricyclo[12.3.1.12,5]nonadeca-1(17),2,4,9,14(18),15-hexaene-12-carboxylic acid (E/Z mixture)
- ring closure, isolated yield ([2]; rcm bond, 14-membered ring, Zhan catalyst-1B, then LiOH, DCE, 0.99 mM, 75.0 °C, 2 steps): 21%
